From patent publication US20250136619A1, “HETEROBIFUNCTIONAL COMPOUNDS AND THEIR USE IN TREATING DISEASE” (HALDA THERAPEUTICS OPCO, INC., priority 2021, published 2025)

Tests used:
[1] = molecular target: androgen receptor (Homo sapiens, UniProt P10275); test: Radioligand ([3H]methyltrienolone) assay for binding affinity to androgen receptor; settings: cell cytosol, 1 nM [3H]methyltrienolone
Procedure: Fractions of cell cytosol ([…]) were incubated for 24 hr at 4° C. with 1 nM [^3H]methyltrienolone in the absence or presence of the test compound in a buffer containing 25 mM Hepes-Tris (pH 7.4), 1 mM EDTA, 10 mM Na2MoO4, 2 mM DTT, 5 μM triamcinolone acetonide, and 10% glycerol. Nonspecific binding was determined in the presence of 1 μM testosterone. Following incubation, the samples were filtered rapidly under vacuum through glass fiber filters (GF/B, Packard) presoaked with 0.3% PEI and rinsed several times with ice-cold 50 mM Tris —HCl using a 96-sample cell harvester (Unifilter, Packard). The filters were dried then counted for radioactivity in a scintillation counter (Topcount, Packard) using a scintillation cocktail (Microscint 0, Packard). The results are expressed as a percent inhibition of the control radioligand specific binding. The standard reference compound is testosterone, which is tested in each experiment at several concentrations to obtain a competition curve from which its IC50 is calculated.

[2] = molecular target: BRD4-BD1 (Homo sapiens (Human), UniProt O60885); test: bromoKdELECT assay for binding affinity to BRD4-BD1
Procedure: (§1) Compounds were tested using a bromoKdELECT assay. T7 phage strains displaying bromodomains were grown in parallel in 24-well blocks in an E. coli host derived from the BL21 strain. E. coli were grown to log-phase and infected with T7 phage from a frozen stock (multiplicity of infection=0.4) and incubated with shaking at 32° C. until lysis (90-150 minutes). The lysates were centrifuged (5,000×g) and filtered (0.2 μm) to remove cell debris. Streptavidin-coated magnetic beads were treated with biotinylated small molecule or acetylated peptide ligands for 30 minutes at room temperature to generate affinity resins for bromodomain assays. The liganded beads were blocked with excess biotin and washed with blocking buffer (SeaBlock (Pierce), 1% BSA, 0.05% Tween 20, 1 mM DTT) to remove unbound ligand and to reduce nonspecific phage binding. Binding reactions were assembled by combining bromodomains, liganded affinity beads, and test compounds in 1×binding buffer (17% SeaBlock, 0.33×PBS, 0.04% Tween 20, 0.02% BSA, 0.004% Sodium azide, 7.4 mM DTT). Test compounds were prepared as 1000X stocks in 100% DMSO. Kds were determined using an 11-point 3-fold compound dilution series with one DMSO control point. All compounds for Kd measurements are distributed by acoustic transfer (non-contact dispensing) in 100% DMSO. The compounds were then diluted directly into the assays such that the final concentration of DMSO was 0.09%. All reactions performed in polypropylene 384-well plates. Each was a final volume of 0.02 ml. The assay plates were incubated at room temperature with shaking for 1 hour and the affinity beads were washed with wash buffer (1×PBS, 0.05% Tween 20). The beads were then resuspended in elution buffer (1×PBS, 0.05% Tween 20, 2 μM non-biotinylated affinity ligand) and incubated at room temperature with shaking for 30 minutes. The bromodomain concentration in the eluates was measured by qPCR.

[3] = molecular target: BRD4-BD2 (Homo sapiens (Human), UniProt O60885); test: bromoKdELECT assay for binding affinity to BRD4-BD2
Procedure: as §1

[4] = molecular target: PLK1 (Homo sapiens (Human), UniProt P53350); test: KdELECT assay for binding affinity to PLK1
Chain of PLK1 (P53350 whole entry): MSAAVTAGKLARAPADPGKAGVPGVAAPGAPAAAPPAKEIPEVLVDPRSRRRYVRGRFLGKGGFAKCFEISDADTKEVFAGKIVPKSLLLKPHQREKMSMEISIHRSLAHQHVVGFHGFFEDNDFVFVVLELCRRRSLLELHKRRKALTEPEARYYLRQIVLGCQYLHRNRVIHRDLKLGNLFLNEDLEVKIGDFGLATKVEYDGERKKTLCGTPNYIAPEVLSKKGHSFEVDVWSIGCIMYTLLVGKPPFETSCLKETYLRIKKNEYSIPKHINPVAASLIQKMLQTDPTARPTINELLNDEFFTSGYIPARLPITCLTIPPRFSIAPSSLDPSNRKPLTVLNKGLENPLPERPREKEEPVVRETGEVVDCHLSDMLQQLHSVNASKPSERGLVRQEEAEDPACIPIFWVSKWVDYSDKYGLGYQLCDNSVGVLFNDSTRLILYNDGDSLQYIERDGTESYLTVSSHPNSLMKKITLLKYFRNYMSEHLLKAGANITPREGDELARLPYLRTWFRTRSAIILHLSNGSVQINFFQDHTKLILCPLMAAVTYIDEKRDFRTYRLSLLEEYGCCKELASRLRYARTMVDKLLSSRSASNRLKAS
Procedure: Compounds were tested using a KdELECT assay. Kinase-tagged T7 phage strains were prepared in an E. coli host derived from the BL21 strain. E. coli were grown to log-phase and infected with T7 phage and incubated with shaking at 32° C. until lysis. The lysates were centrifuged and filtered to remove cell debris. The remaining kinases were produced in HEK-293 cells and subsequently tagged with DNA for qPCR detection. Streptavidin-coated magnetic beads were treated with biotinylated small molecule ligands for 30 minutes at room temperature to generate affinity resins for kinase assays. The liganded beads were blocked with excess biotin and washed with blocking buffer (SeaBlock (Pierce), 1% BSA, 0.05% Tween 20, 1 mM DTT) to remove unbound ligand and to reduce non-specific binding. Binding reactions were assembled by combining kinases, liganded affinity beads, and test compounds in 1×binding buffer (20% SeaBlock, 0.17×PBS, 0.05% Tween 20, 6 mM DTT). Test compounds were prepared as 111X stocks in 100% DMSO. Kd values were determined using an 11-point 3-fold compound dilution series with three DMSO control points. All compounds for Kd measurements are distributed by acoustic transfer (non-contact dispensing) in 100% DMSO.
The compounds were then diluted directly into the assays such that the final concentration of DMSO was 0.9%. […] The kinase concentration in the eluates was measured by qPCR.

Chain of androgen receptor (P10275 whole entry, looked up): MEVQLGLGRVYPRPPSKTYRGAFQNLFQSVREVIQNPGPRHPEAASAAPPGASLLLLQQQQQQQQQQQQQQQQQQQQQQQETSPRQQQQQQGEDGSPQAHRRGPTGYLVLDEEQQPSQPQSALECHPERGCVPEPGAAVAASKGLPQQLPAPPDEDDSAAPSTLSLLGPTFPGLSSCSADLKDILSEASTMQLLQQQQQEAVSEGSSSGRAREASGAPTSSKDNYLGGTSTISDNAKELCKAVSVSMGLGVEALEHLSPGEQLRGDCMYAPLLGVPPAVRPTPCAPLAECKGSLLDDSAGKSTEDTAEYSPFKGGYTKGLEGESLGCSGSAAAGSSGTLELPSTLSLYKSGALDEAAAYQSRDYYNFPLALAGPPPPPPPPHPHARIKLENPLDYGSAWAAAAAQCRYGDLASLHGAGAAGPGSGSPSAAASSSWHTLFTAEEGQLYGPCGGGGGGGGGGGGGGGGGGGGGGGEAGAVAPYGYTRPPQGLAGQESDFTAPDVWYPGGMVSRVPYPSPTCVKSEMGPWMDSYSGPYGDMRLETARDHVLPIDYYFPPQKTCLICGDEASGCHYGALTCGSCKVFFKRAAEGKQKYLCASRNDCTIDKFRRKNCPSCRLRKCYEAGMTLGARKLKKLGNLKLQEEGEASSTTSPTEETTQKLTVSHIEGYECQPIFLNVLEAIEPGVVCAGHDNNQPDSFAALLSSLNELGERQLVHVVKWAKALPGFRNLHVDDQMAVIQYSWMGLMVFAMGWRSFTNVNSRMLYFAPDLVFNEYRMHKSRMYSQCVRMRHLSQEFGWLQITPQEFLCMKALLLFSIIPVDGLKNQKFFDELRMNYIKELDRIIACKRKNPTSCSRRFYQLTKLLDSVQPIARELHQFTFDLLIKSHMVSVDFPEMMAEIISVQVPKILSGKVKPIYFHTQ

SMILES | Kd [1] [nM] | Kd [2] [nM] | Kd [3] [nM] | Kd [4] [nM]
Cc1sc2c(c1C)C(c1ccc(Cl)cc1)=N[C@@H](CC(=O)NCCOCCOCCOCCOCCOCCOCCOc1ccc(C(=O)NC3C(C)(C)C(Oc4ccc(C#N)c(Cl)c4)C3(C)C)cc1)c1nnc(C)n1-2 (stereo partly shown) [Compound I-34] | < 50 | 50 to 500 | 50 to 500 | 
CCC1C(=O)N(C)c2cnc(Nc3ccc(C(=O)NCCN(C)C(=O)CO[C@H]4CC[C@H]5[C@@H]6CC[C@H]7CC(=O)CC[C@]7(C)[C@H]6CC[C@]45C)cc3OC)nc2N1C1CCCC1 (stereo partly shown) [Compound I-41] |  |  |  | < 50
